Measurements as given in patent US20110257135A1, “TOPICAL PESTICIDE FORMULATION” (priority 2008, published 2011).

Key:
[1] = test system: mice; assay: Initial topical test of 4% w/v formulation on mice; type: in vivo; conditions: 4% w/v cholecalciferol in absolute alcohol, 0.5 ml per animal
Excerpt: (§1) A formulation of the present invention was initially prepared and tested on mice and laboratory rats to determine the viability of the invention. The formulation contained cholecalciferol in an amount of 4% w/v and absolute alcohol. […] These studies are described in the following examples.

[2] = test system: laboratory rats; assay: Initial topical test of 4% w/v formulation on laboratory rats; type: in vivo; conditions: 4% w/v cholecalciferol in absolute alcohol, 0.5 ml per animal
Excerpt: as §1

[3] = test system: Bush Rat (Rattus rattus); assay: Dermal application of cholecalciferol, Example 1 study (Table 1); type: in vivo; conditions: 1.0 ml of 20% cholecalciferol in absolute alcohol, topical; animal weight unknown
Method: (§2) Two formulations of the invention were prepared both containing cholecalciferol in solution with absolute alcohol. One of the formulations contained cholecalciferol in an amount of 20% w/v. The other formulation contained cholecalciferol in an amount of 40% w/v. The formulation was topically applied to several animal pest species in varying amounts and the animals were studied.

[4] = test system: Ferret; assay: as above; type: in vivo; conditions: 2.0 ml of 40% cholecalciferol in absolute alcohol, topical; animal 902 g
Method: as §2

[5] = test system: Hedgehog; assay: as above; type: in vivo; conditions: 1.5 ml of 20% cholecalciferol in absolute alcohol, topical; animal 515 g
Method: as §2

[6] = test system: Lab Rat (Rattus norvegicus); assay: as above; type: in vivo; conditions: 0.5 ml of 20% cholecalciferol in absolute alcohol, topical; animal weight unknown
Method: as §2

[7] = test system: Rabbit; assay: as above; type: in vivo; conditions: 2.0 ml of 20% cholecalciferol in absolute alcohol, topical; animal 2.6 kg
Method: as §2

[8] = test system: Weasel; assay: as above; type: in vivo; conditions: 1.5 ml of 40% cholecalciferol in absolute alcohol, topical
Method: as §2

[9] = test system: stoats; assay: Dermal application of test solution to wild-caught stoats (Example 2 study); type: in vivo
Method: A test solution of approximately 100 ml was formulated, containing Vitamin D3 (cholecalciferol) resin in the solvent absolute alcohol. The concentration of cholecalciferol in the solution was about 40% w/v. The formulation was designed to kill stoats.
Wild-caught adult stoats (three male and three female) were housed in outdoor cages (60×150×90 cm). Each stoat was provided with a nest box (40×33×15 cm) containing shredded paper as nesting material. Stoats were fed a rotation of, dead day-old chicks, chicken pet mince and mutton/beef pet mince in the afternoon and had free access to water.
They were acclimatised to captivity for at least 5 months prior to being used in the trial. The stoats were lightly anaesthetised with isoflurane, weighed and then had 1.5 ml of the test solution applied to their skin and fur, using a syringe to deliver a line of solution along the spine from the nape to the base of the tail. This was a ‘high exposure’ simulation of the manner in which the delivery system would apply a toxic solution to the fur and skin of stoats.
After application of the solution, the stoats were placed into large nest boxes which were lined with paper but without bedding material, to facilitate observation. Dark Perspex lids were kept on the nest boxes to minimise disturbance of stoats by human observers. The stoats were monitored constantly through recovery from anaesthesia and then for the next three hours to record their responses to the solution on their coats and document any behaviour associated with its presence e.g. grooming, rubbing or rolling. After the three hour observation period in the boxes, stoats were returned to their outdoor cages with nesting material, food and water freely available. […] After this, observations of each stoat were recorded once daily, noting any signs of illness that are associated with cholecalciferol poisoning, e.g. stop feeding, significant body weight loss. Where any signs of illness occurred, the monitoring was to be increased to twice daily (morning and afternoon).
Feed intakes of the stoats were visually estimated for at least three days prior to dosing, i.e. ration all eaten, half eaten, quarter eaten, none eaten. Food intake was similarly noted daily after dosing through until death or 21 days (whichever occurred first). Stoats were weighed at least once a week after dosing, through to death or 21 days (which ever occurred first). Any stoats that died during the 21 day observation were to be retained for necropsy. Typical signs of poisoning (inappetance combined with significant body weight loss) were used as an alternative endpoint for the trial, with a weight loss greater than 25% of bodyweight at dosing triggering euthanasia. Stoats that survived the 21 day observation were to be euthanized.

[10] = Cholecalciferol concentration of test solution by normal phase liquid chromatography (stability of formulation); type: physicochemical
Method: To confirm the cholecalciferol concentration present and enable accurate exposure calculations when the test solution was applied to the stoats, a sub-sample (approximately 20 ml) of this solution was taken for analysis. Cholecalciferol concentration was determined by taking a sample of liquid which was warmed, mixed and 0.2 g weighed into a volumetric flask 30 ml of toluene was added, and this solution was sonicated without heating and made up to volume. The solution was diluted with hexane/isopropyl alcohol, filtered and analysed against an internal standard by normal phase liquid chromatography.
The test solution was analysed as containing 30% cholecalciferol with an uncertainty of 5%. This was lower than the nominal 40% cholecalciferol in the solution indicated by the analysis carried out the day after the solution was prepared. The assay was carried out on a sub-sample of solution taken 7 days after preparation, and also following the extraction of 6×1.5 ml aliquots of the solution for application to stoats.
This may mostly have occurred on exposure to air when aliquots of solution were drawn from the container for application to the stoats. Cholecalciferol preparations are sensitive to light and exposure to air, with oxidation and inactivation occurring over a few days in the presence of moist air. However, it is noted that even at a 30% concentration, the solution contained sufficient cholecalciferol to deliver an effective lethal dose to all six stoats in 1.5 ml.

[11] = test system: weasels; assay: Proof of concept trial on wild weasels (Example 3 study); type: in vivo
Excerpt: Three wild weasels were caught for a proof of concept trial to determine if the formulation of the invention would be effective as a humane method of killing these pests. The weasels were caged separately in individual waterproof, roofed, wired enclosures of approximately 1 m^2. The animals were fed on raw meat, by simply placing the meat on a wire hooked into the side of the cages. In eating the animals simply pulled on and chewed the meat. Drinking water was available. Within each enclosure was a small box of 25×25 cm with a mesh roof. A vertical sliding door could be removed to provide an entrance to the enclosure and the enclosure was half filled with nesting material of hay. It was observed that the animals covered themselves in the hay and made pathways through it.
Each of the animals was then treated with a formulation comprising 32% cholecalciferol (resin form) in solution with the glycol ether, DGMEE, and observations were made.
The first animal, a male weasel weighing 157 grams, was treated by application of 1 ml of the formulation using a syringe to the back of the animal. This weasel died within 44 hours of application of the formulation.
The second animal, a female weasel weighing 94 grams, was treated using an eradication apparatus as described above. The electronically activated apparatus was placed into the cage of the animal. The apparatus comprised of a tunnel, including a sensing means comprising two pairs of sensors, and a tracking card to record the footprints of the weasel to establish that the animal had passed through the tunnel. An automatic dispensing means was operatively connected to the tunnel, so that when the weasel passed through the tunnel and the two pairs of sensors were covered ,simultaneously, the dispensing , means was automatically activated to deliver the formulation to the animal. In this manner, approximately 0.9 ml of the cholecalciferol formulation was applied to the back of the weasel as it passed through the tunnel of the apparatus. It was observed that some of the formulation was present on the tracking card so the weasel had not received the total volume of the formulation. The weasel died approximately 50 hours after receiving the formulation.
The third animal, a male weasel weighing 54 grams was treated by squirting approximately 1 ml of the formulation onto the back of the animal using a hand held syringe. This weasel died within about 39 hours of application of the formulation.

[12] = test system: Rattus rattus (bush rat); assay: Topical administration to live captured bush rats (Example 4 study); type: in vivo
Method: Three animals of the species Rattus rattus (also known as the bush rat) were live captured. They were placed in separate enclosures with on demand food and water supplies, and nesting material of dry hay. After 14 days of acclimatization to these conditions, the animals were each treated with a formulation comprising a solution of 33% cholecalciferol (resin form) in the glycol ether, DGMEE. Each animal was given a dose of about 3 ml of the formulation by topical administration to the back of the animal using a calibrated syringe. Each of the animals died within six days of receiving the formulation. The first rat, a male weighing 122 grams, weighed 106 grams at death. The second rat, a female weighing 108 grams, weighed 98 grams at death. The third rat, a male weighing 97 grams, weighed 90 grams at death.

[13] = Stoat Female 407, 193 g at dosing, 2331 mg/kg dermal
[14] = Stoat Male 391, 235 g at dosing, 1914 mg/kg dermal
[15] = Stoat Male 415, 382 g at dosing, 1178 mg/kg dermal
[16] = Stoat Male 419, 359 g at dosing, 1253 mg/kg dermal

Structure (SMILES): C=C1CC[C@H](O)C/C1=C/C=C1\CCC[C@]2(C)[C@@H]([C@H](C)CCCC(C)C)CC[C@@H]12 [cholecalciferol]
- death of the animal [1]: death of the animal occurred within a reasonably short time frame
- death of the animal [2]: death of the animal occurred within a reasonably short time frame
- Observations: time to death [3]: within 40 hours
- Observations: time to death [4]: within 48 hours
- Observations: time to death [5]: within 25 hours
- Observations: time to death [6]: within 72 hours
- Observations: time to death [7]: within 2 days
- Observations: time to death ([8]; animal 116 g): within 43 hours
- Observations: time to death ([8]; animal 139 g): within 36 hours
- % weight loss at death ([9]; Stoat Female 407, 2331 mg/kg dermal): 46%
- Fate (days after dosing) ([9]; Stoat Female 407, 193 g at dosing, 1.5 ml test solution, estimated exposure 2331 mg/kg): died (12)
- Weight at day 7 [9, 13]: 151 g
- Weight at day 12 [9, 13]: 112 g
- % weight loss at death ([9]; Stoat Female 413, 2486 mg/kg dermal): 44%
- Fate (days after dosing) ([9]; Stoat Female 413, 181 g at dosing, 1.5 ml test solution, estimated exposure 2486 mg/kg): died (11)
- Weight at day 7 ([9]; Stoat Female 413, 181 g at dosing, 2486 mg/kg dermal): 120 g
- % weight loss at death ([9]; Stoat Female 414, 2205 mg/kg dermal): 13%
- Fate (days after dosing) ([9]; Stoat Female 414, 204 g at dosing, 1.5 ml test solution, estimated exposure 2205 mg/kg): died (4)
- % weight loss at death ([9]; Stoat Male 391, 1914 mg/kg dermal): 30%
- Fate (days after dosing) ([9]; Stoat Male 391, 235 g at dosing, 1.5 ml test solution, estimated exposure 1914 mg/kg): euthanized (12)
- Weight at day 7 [9, 14]: 188 g
- Weight at day 12 [9, 14]: 166 g
- % weight loss at death ([9]; Stoat Male 415, 1178 mg/kg dermal): 36%
- Weight at day 7 [9, 15]: 296 g
- Weight at day 12 [9, 15]: 254 g
- Fate (days after dosing) ([9]; Stoat Male 415, 382 g at dosing, 1.5 ml test solution (nominal 40%, assayed 30%, absolute alcohol), estimated exposure 1178 mg/kg): euthanized (12)
- % weight loss at death ([9]; Stoat Male 419, 1253 mg/kg dermal): 37%
- Weight at day 7 [9, 16]: 277 g
- Weight at day 12 [9, 16]: 253 g
- Fate (days after dosing) ([9]; Stoat Male 419, 359 g at dosing, 1.5 ml test solution, estimated exposure 1253 mg/kg): euthanized (12)
- inappetance (stop feed effect) ([9]; from the first night after dosing, generally eating less than half of rations each day): All six stoats showed inappetance
- effective lethal dermal exposure (in excess of or equal to a dermal LD99 value) ([9]; lower end of exposure range in stoats, test solution in absolute alcohol): 1178 mg/kg
- cages with vomitus present ([9]; morning after return to outdoor cages, 1.5 ml test solution): three of the 6
- mortality (number of stoats) ([9]; six stoats, over 12 days after dosing, 1.5 ml test solution): three
- necropsy findings ([9]; stoats that died): no gross evidence of calcification/mineralisation or lung damage
- time of euthanasia after dosing (weight loss endpoint), male stoats ([9]; three male stoats, 1.5 ml test solution, 1178-1914 mg/kg): 12 days
- cholecalciferol concentration of test solution (nominal) ([10]; analysis carried out the day after the solution was prepared, absolute alcohol): 40%
- change of cholecalciferol concentration in test solution ([10]; during the 7 days from preparation to application): slight decline
- cholecalciferol concentration of test solution ([10]; sub-sample taken 7 days after preparation, after extraction of aliquots, uncertainty of 5%, absolute alcohol): 30%
- appetite after application ([11]; female weasel 94 grams, approximately 0.9 ml of 32% cholecalciferol in DGMEE): lost its appetite
- time to death ([11]; female weasel 94 grams, approximately 0.9 ml of 32% cholecalciferol in DGMEE via eradication apparatus, not total volume received): approximately 50 hours
- time to death ([11]; male weasel 54 grams, approximately 1 ml of 32% cholecalciferol in DGMEE by hand held syringe): ≤ 39 h
- time to death ([11]; male weasel 157 grams, 1 ml of 32% cholecalciferol (resin) in DGMEE by syringe to the back): ≤ 44 h
- food consumption after application ([11]; male weasel 157 grams, 1 ml of 32% cholecalciferol in DGMEE): ate only a small quantity of what it had previously been consuming
- weight at death ([12]; first rat, male weighing 122 grams, about 3 ml of 33% cholecalciferol in DGMEE): 106 grams
- hair loss at application site ([12]; over the first few days of treatment, about 3 ml of 33% cholecalciferol in DGMEE): hair loss was observed on all of the animals
- weight at death ([12]; second rat, female weighing 108 grams, about 3 ml of 33% cholecalciferol in DGMEE): 98 grams
- weight at death ([12]; third rat, male weighing 97 grams, about 3 ml of 33% cholecalciferol in DGMEE): 90 grams
- time to death ([12]; three bush rats, about 3 ml of 33% cholecalciferol (resin) in DGMEE, topical to the back): six
